Laboratory results published in patent US20100234377A1 (priority 2007, published 2010).
Like-named read-outs stand apart in the source and are kept apart here.

How the values were obtained:
[1] = molecular target: T1, PPARγ (h) (Homo sapiens, UniProt P37231); experiment: PPARγ receptor binding assay ([3H]rosiglitazone); details: Table 3; [3H]rosiglitazone 10 nM, human recombinant
T1 construct: host or cells: E. coli
T1 sequence (P37231 1-505): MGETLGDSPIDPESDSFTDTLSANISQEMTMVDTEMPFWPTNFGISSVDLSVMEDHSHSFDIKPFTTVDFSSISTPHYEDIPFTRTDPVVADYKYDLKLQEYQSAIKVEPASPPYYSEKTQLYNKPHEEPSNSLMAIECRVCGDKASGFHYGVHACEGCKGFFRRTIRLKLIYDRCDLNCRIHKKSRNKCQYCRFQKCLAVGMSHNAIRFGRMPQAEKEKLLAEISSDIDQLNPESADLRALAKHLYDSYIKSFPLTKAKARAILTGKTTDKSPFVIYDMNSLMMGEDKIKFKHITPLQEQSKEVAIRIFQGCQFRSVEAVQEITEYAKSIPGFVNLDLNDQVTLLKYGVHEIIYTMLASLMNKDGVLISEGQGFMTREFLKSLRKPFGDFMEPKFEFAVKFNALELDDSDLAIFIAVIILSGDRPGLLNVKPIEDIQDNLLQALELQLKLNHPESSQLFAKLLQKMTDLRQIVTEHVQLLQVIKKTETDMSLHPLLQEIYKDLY
From the text: Selected GST2 Inhibitors Screened Against PPARγ and KATP Channel Modulator Assays
Selected GST2 inhibitors of General Formula (I) were screened in a PPARγ assay to determine their modulator effects.
(§1) The specific ligand binding to the receptor is defined as the difference between the total binding and the non-specific binding determined in the presence of an excess of unlabelled ligand. The results are expressed as a percent inhibition of control specific binding obtained in the presence of the test compounds.
(§2) In each experiment, the respective reference compound was tested concurrently with the test compounds in order to assess the assay suitability. It was tested at several concentrations (for IC50 value determination), and the data were compared with historical values.

[2] = molecular target: T2, human Prostaglandin D Synthase (GST2) (Homo sapiens, UniProt O60760); experiment: Homogeneous biochemical assay of human Prostaglandin D Synthase (GST2) based on its glutathion-S-transferase activity (GSH conjugation to monochlorobimane, fluorescence)
T2 construct: the open reading frame of human Prostaglandin D Synthase was amplified from cDNA; made in house; host or cells: E. coli TOP10F'
Method in brief: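 N-His-tagged human PGD synthase from E. coli, assayed via its GST activity: GSH conjugation to monochlorobimane in 50 mM MES/KOH pH 6.1, 0.7 mM GSH, 2 mM MgCl2. Compounds at final picomolar to triple-digit micromolar concentrations.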

[3] = molecular target: K+ATP channel (Rattus norvegicus, UniProt Q09429); experiment: KATP channel receptor binding assay ([3H]glibenclamide); details: [3H]glibenclamide 0.1 nM, rat cerebral cortex; for inhibition at 10 µM: Table 1, 10 μM compound concentration, read-out: K^+ATP Channel (% Inhibition of Control Specific Binding); for K+ATP Channel (% Inhibition of Control Specific Binding): Table 3
Experimental: KATP Channel Mediated Binding Assay
The compounds of Comparative Examples I to XII and Compounds 59, 30, 22, 76 and 69 were tested for their effects in an in vitro receptor binding KATP channel assay.
as §1, §2

[4] = Mouse microsomal metabolism assay; format: in vitro ADME; details: liver microsomes; mouse hepatic microsomes, 37° C., phosphate buffer pH 7.4, NADPH regenerating system; read-out: Mouse t½
Experimental: Selected GST2 Inhibitors from Formula I Assessed in Mouse Microsomal Metabolism Assay
Selected GST2 inhibitors of General Formula (I) were screened in a mouse hepatic microsome assay to determine microsomal metabolism.
Test Articles were prepared in 50% acetonitrile.
Mouse hepatic microsomes supplied by BD GenTest Inc or an equivalent reputable supplier.
Test Articles are added to incubation plates containing phosphate buffer pH 7.4 and microsomes at a suitable protein concentration. Incubation plates are placed on a shaking water bath at 37° C. for 5 minutes pre-incubation. An aliquot of the reaction mixture is taken and added to acetonitrile (3:1). This is designated time […]. NADPH regenerating system in phosphate buffer pH 7.4 is added to initiate reactions. Aliquots from the incubation wells are taken at a number of time points and added to acetonitrile. Control incubations contained no microsomes or compounds with known microsomal stabilities. Samples were subject to centrifugation to remove denatured protein and the supernatants were analysed by LCMS.
Half lives were calculated from the log vs time transformed data according to the following equation: […]
Where λ is the slope of the linear regression line under first order (Test Article concentration <Km) conditions.

[5] = system: B6.V Lep^ob mice (ob/ob mice); experiment: Pharmacological study: body weight and food intake of treated ob/ob mice; format: in vivo, mouse; details: male ob/ob mice, 120 mg/kg/day by oral gavage, 12 days of treatment, versus vehicle
Experimental: FIG. 1 is a body weight curve graph which plots the body weight and food intake of mice over time. Some of the mice are given food only whereas some are given food together with Compound 22 below.
16 Male ob/ob mice were obtained from Charles River in Belgium at an approximate age of 6 weeks and with an approximate mean body weight of 35 g at the beginning of substance administration. Mice were housed 4 per cage at a temperature of 23° C.±1 and a day/night cycle of 14/10 hours (05:00-19:00-05:00), with ad libitum access to standard chow and tap water. Mice were allowed to adapt to these conditions for 8 days prior to the start of treatment. Animals were administered substance by oral gavage in the morning at 07:00, immediately after determining body weight and food consumption. In the evening substance was administered at 19:00. One group of 8 animals were administered vehicle, 0.3% methylcellulose in saline, and the second group of 8 animals were administered Compound 22 (120 mg/kg/day) suspended in the vehicle. Body weight and food consumption were recorded daily during 12 days of treatment and the results are presented in FIG. 1, which is a body weight curve graph. This illustrates a 7% reduced weight gain in Compound 22 administered ob/ob mice, despite unaltered food intake.

[6] = Table 1, read-out: GST2 IC50 Range
[7] = Table 3, read-out: GST2 IC50 range
[8] = given beside the compound name in Examples 1 to 167, read-out: Potency Range (GST2 IC50)

T2 sequence (O60760 whole entry): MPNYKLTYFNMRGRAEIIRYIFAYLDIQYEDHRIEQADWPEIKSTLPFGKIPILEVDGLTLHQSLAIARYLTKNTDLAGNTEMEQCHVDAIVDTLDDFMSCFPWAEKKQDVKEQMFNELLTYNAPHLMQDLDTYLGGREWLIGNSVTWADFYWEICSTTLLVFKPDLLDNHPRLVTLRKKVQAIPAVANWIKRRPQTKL
K+ATP channel, sequence (Q09429 whole entry): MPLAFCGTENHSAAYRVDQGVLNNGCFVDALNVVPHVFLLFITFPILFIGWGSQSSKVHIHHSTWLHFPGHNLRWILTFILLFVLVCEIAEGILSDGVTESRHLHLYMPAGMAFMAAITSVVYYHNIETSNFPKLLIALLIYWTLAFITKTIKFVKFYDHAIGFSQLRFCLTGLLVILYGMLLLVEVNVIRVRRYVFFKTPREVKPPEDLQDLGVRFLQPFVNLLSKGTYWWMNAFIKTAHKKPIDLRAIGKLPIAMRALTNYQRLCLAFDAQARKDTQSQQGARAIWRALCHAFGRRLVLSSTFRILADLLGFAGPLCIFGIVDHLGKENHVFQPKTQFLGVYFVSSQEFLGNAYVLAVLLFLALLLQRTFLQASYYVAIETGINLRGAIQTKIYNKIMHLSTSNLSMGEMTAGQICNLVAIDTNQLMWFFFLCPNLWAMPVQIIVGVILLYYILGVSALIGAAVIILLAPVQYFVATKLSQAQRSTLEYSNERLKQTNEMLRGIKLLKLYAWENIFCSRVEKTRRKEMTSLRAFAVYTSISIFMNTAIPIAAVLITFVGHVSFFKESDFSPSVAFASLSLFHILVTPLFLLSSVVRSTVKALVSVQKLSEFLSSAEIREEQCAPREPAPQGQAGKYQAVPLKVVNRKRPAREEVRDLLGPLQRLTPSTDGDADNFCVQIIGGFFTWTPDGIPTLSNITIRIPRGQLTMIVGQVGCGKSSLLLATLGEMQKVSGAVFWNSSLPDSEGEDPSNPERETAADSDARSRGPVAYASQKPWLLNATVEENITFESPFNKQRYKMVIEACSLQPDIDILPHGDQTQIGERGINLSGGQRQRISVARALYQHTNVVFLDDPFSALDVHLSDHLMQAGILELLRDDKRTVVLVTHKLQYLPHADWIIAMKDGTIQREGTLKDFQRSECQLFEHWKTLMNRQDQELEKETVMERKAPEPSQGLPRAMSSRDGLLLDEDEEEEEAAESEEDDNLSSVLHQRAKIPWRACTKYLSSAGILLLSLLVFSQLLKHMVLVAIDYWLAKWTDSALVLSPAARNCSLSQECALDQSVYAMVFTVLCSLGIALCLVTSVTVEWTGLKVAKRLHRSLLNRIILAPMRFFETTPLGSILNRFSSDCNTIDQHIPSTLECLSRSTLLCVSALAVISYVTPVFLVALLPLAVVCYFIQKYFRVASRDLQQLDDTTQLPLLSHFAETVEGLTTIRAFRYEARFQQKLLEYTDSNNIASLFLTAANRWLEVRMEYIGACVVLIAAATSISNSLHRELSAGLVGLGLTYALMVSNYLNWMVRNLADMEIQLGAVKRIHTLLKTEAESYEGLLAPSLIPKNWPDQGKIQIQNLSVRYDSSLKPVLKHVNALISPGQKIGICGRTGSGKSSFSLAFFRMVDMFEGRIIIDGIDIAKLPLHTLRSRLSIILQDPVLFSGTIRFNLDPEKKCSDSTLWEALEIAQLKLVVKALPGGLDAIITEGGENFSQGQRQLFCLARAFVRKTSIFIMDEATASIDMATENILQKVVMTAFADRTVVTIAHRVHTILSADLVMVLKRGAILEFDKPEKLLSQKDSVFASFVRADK
K+ATP channel, sequence (P70673 whole entry partner): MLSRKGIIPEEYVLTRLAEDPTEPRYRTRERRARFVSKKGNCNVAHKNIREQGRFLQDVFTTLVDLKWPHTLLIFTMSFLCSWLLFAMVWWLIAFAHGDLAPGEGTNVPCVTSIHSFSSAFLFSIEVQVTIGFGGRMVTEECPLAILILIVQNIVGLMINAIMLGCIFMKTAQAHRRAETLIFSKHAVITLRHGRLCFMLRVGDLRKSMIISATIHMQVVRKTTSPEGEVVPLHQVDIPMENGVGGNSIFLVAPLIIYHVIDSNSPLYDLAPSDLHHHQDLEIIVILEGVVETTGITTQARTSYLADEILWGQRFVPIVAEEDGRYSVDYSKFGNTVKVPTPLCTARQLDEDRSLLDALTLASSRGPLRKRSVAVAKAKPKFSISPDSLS

Compound	PPARγ (% Inhibition of Control Specific Binding) [1]	IC50 [2, 6]	IC50 [2, 7]	IC50 [2, 8]	inhibition at 10 µM [3]	K+ATP Channel (% Inhibition of Control Specific Binding) [3]	half-life [4]	reduced weight gain [5]
O=C(Nc1ccc(N2CCN(C(=O)OC3CCOC3)CC2)c(F)c1)N1CCN(C(=O)c2cccc(F)c2)CC1 (racemic) [Compound 59, 4-(2-Fluoro-4-{[4-(3-fluoro-benzoyl)-piperazine-1-carbonyl]-amino}-phenyl)-piperazine-1-carboxylic acid tetrahydro-furan-3-yl ester]	15%	11 to 100 nM	11 to 100 nM	11 to 100 nM	15%	12%	–	–
O=C(Nc1nc(-c2ccccc2)cs1)N1CCN(C(=O)c2cccc(F)c2)CC1 [Compound 69, 4-(3-Fluoro-benzoyl)-piperazine-1-carboxylic acid (4-phenyl-thiazol-2-yl)-amide]	−22%	11 to 100 nM	11 to 100 nM	11 to 100 nM	-22%	−13%	–	–

More lines, main results first:

PPARγ (% Inhibition of Control Specific Binding) [1]	IC50 [2, 6]	IC50 [2, 7]	IC50 [2, 8]	inhibition at 10 µM [3]	K+ATP Channel (% Inhibition of Control Specific Binding) [3]	half-life [4]	Compound	reduced weight gain [5]
1%	101 to 1000 nM	101 to 1000 nM	101 to 1000 nM	1%	14%	> 1 h	O=C(Nc1ccc(C(F)(F)F)cc1)N1CCN(C(=O)c2cccc(F)n2)CC1 [Compound 22, 4-(6-Fluoro-pyridine-2-carbonyl)-piperazine-1-carboxylic acid (4-trifluoromethyl-phenyl)-amide]	7%
16%	11 to 100 nM	11 to 100 nM	11 to 100 nM	16%	13%	–	Cc1nc(-c2cccc(NC(=O)N3CCN(C(=O)c4cccc(F)c4)CC3)c2)no1 [Compound 30, 4-(3-Fluoro-benzoyl)-piperazine-1-carboxylic acid [3-(5-methyl-[1,2,4]oxadiazol-3-yl)-phenyl]-amide]	–
20%	11 to 100 nM	11 to 100 nM	101 to 1000 nM	20%	−2%	–	Cn1cnnc1-c1cccc(NC(=O)N2CCN(C(=O)c3cccc(F)c3)CC2)c1 [Compound 76, 4-(3-Fluoro-benzoyl)-piperazine-1-carboxylic acid [3-(4-methyl-4H-[1,2,4]triazol-3-yl)-phenyl]-amide]	–
